From US8268814B2, “Substituted sulfonamide compounds” (Gruenenthal GmbH, priority 2008, dated 2012)

Experiments:
[1] = biological target: T1, human B1R receptor (hB1R) (Homo sapiens, UniProt P46663); assay: Functional FLIPR Ca2+ assay on the bradykinin 1 receptor, human (hB1R CHO K1 cells); assay type: cell-based; details: test substance 10 μM; CHO K1 cells transfected with human B1R gene; agonist Lys-Des-Arg9-bradykinin at EC80; % inhibition compared with maximum achievable inhibition; read-out: B1R antagonism, human (10 μM] % inhibition
T1 construct: expressed in transfected cells; host or cells: CHO K1 cells (Chinese hamster ovary), stably transfected
T1 sequence (P46663 1-353): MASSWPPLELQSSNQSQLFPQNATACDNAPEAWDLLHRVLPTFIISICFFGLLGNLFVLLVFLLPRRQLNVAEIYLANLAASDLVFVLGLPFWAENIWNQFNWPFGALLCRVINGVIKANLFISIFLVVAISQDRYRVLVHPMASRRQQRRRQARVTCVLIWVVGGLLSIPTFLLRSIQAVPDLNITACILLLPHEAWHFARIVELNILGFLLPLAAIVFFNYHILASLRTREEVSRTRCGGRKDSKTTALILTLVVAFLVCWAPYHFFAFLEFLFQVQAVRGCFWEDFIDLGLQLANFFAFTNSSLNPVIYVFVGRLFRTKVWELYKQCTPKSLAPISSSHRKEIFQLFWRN
Method in brief: (§1)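 Stably transfected CHO K1 cells expressing human or rat B1R, Fluo-4-loaded, Ca2+ influx read by FLIPR (peak fluorescence). Compounds (10 μM for % activation) preincubated 10-20 min, then EC80 agonist added: Lys-Des-Arg9-bradykinin for human, Des-Arg9-bradykinin for rat; % inhibition versus maximal inhibition, IC50 from concentration series.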

[2] = biological target: T2, B1R receptor of the rat (rB1R) (Rattus norvegicus, UniProt P97583); assay: Functional FLIPR Ca2+ assay on the bradykinin 1 receptor, rat (rB1R CHO K1 cells); assay type: cell-based; details: test substance 10 μM; CHO K1 cells transfected with rat B1R gene; agonist Des-Arg9-bradykinin at EC80; % inhibition compared with maximum achievable inhibition; read-out: B1R antagonism, rat [10 μM] % inhibition
T2 construct: expressed in transfected cells; host or cells: CHO K1 cells (Chinese hamster ovary), stably transfected
T2 sequence (P97583 1-337): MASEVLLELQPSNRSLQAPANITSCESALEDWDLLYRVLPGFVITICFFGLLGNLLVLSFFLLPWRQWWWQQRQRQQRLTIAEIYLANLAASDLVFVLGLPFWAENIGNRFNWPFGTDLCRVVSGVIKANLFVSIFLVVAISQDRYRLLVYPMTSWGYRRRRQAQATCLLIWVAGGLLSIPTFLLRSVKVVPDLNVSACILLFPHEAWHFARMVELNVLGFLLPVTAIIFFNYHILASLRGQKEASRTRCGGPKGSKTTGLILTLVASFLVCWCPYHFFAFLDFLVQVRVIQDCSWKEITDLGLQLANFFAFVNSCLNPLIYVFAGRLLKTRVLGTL
Method in brief: as §1

Structure (SMILES)	inhibition at 10 µM [1]	inhibition at 10 µM [2]
COc1cc(C)c(S(=O)(=O)N2CCCCC2COCC(=O)N2CCc3nc(-c4ccncc4)sc3C2)c(C)c1 (centres unmarked) [Example 48, 2-((1-(4-methoxy-2,6-dimethylphenylsulfonyl)piperidin-2-yl)methoxy)-1-(2-(pyridin-4-yl)-6,7-dihydrothiazolo[5,4-c]pyridin-5(4H)-yl)ethan-1-one]	100%	94%
COc1cc(C)c(S(=O)(=O)N(C)CCOCC(=O)N2CCc3onc(CN4CCOCC4)c3C2)c(C)c1 [Example 30, 4-methoxy-N,2,6-trimethyl-N-(2-(2-(3-(morpholinomethyl)-6,7-dihydroisoxazolo[4,5-c]pyridin-5(4H)-yl)-2-oxoethoxy)ethyl)benzenesulfonamide]	99%	104%
COc1cc(C)c(S(=O)(=O)N2CCCCC2CCC(=O)N2CCc3nc(Cc4ccncc4)sc3C2)c(C)c1 (centres unmarked) [Example 41, 3-(1-(4-methoxy-2,6-dimethylphenylsulfonyl)piperidin-2-yl)-1-(2-(pyridin-4-ylmethyl)-6,7-dihydrothiazolo[5,4-c]pyridin-5(4H)-yl)propan-1-one]	64%	99%
O=C(CC1CCCCN1S(=O)(=O)c1cccc(C(F)(F)F)c1)N1CCc2onc(CN3CCCCC3)c2C1 (centres unmarked) [Example 05, 1-(3-(piperidin-1-ylmethyl)-6,7-dihydroisoxazolo[4,5-c]pyridin-5(4H)-yl)-2-(1-(3-(trifluoromethyl)phenylsulfonyl)piperidin-2-yl)ethanone]	48%	27%
CN1CCN(Cc2cc3c(s2)CCN(C(=O)CC2CCCCN2S(=O)(=O)c2cccc(C(F)(F)F)c2)C3)CC1 (centres unmarked) [Example 44, 1-(2-((4-methylpiperazin-1-yl)methyl)-6,7-dihydrothieno[3,2-c]pyridin-5(4H)-yl)-2-(1-(3-(trifluoromethyl)phenylsulfonyl)piperidin-2-yl)ethan-1-one]	83%	59%
COc1cc(C)c(S(=O)(=O)N2c3ccccc3CC[C@H]2COCC(=O)N2CCc3sc(CN4CCCCC4)cc3C2)c(C)c1 [Example 61, 2-[[(2S)-1-[(4-methoxy-2,6-dimethyl-phenyl)sulfonyl]-1,2,3,4-tetrahydro-quinolin-2-yl]-methoxy]-1-[2-(piperidin-1-yl-methyl)-4,5,6,7-tetrahydro-thieno[3,2-c]pyridin-5-yl]-ethanone]	100%	106%
COc1cc(C)c(S(=O)(=O)N(C)CCOCC(=O)N2CCc3sc(CN4CCN(C)CC4)cc3C2)c(C)c1 [Example 51, 4-methoxy-N,2,6-trimethyl-N-(2-(2-(2-((4-methylpiperazin-1-yl)methyl)-6,7-dihydrothieno[3,2-c]pyridin-5(4H)-yl)-2-oxoethoxy)ethyl)benzenesulfonamide]	100%	103%
COc1cc(C)c(S(=O)(=O)N2CCCCC2CCCC(=O)N2CCc3sc(CN4CCN(C)CC4)cc3C2)c(C)c1 (centres unmarked) [Example 47, 4-(1-(4-methoxy-2,6-dimethylphenylsulfonyl)piperidin-2-yl)-1-(2-((4-methylpiperazin-1-yl)methyl)-6,7-dihydrothieno[3,2-c]pyridin-5(4H)-yl)butan-1-one]	100%	101%
COc1cc(C)c(S(=O)(=O)N2CCCCC2CCCC(=O)N2CCc3nc(-c4ccncc4)sc3C2)c(C)c1 (centres unmarked) [Example 53, 4-(1-(4-methoxy-2,6-dimethylphenylsulfonyl)piperidin-2-yl)-1-(2-(pyridin-4-yl)-6,7-dihydrothiazolo[5,4-c]pyridin-5(4H)-yl)butan-1-one]	96%	98%
COc1cc(C)c(S(=O)(=O)N2CCCCC2CCC(=O)N2CCc3nc(-c4ccncc4)sc3C2)c(C)c1 (centres unmarked) [Example 52, 3-(1-(4-methoxy-2,6-dimethylphenylsulfonyl)piperidin-2-yl)-1-(2-(pyridin-4-yl)-6,7-dihydrothiazolo[5,4-c]pyridin-5(4H)-yl)propan-1-one]	76%	95%

Continued, values first:

inhibition at 10 µM [1]	inhibition at 10 µM [2]	Structure (SMILES)
14%	79%	O=C(CC(NS(=O)(=O)c1ccc2ccccc2c1)c1ccccc1)N1CCc2nc(Cc3ccncc3)sc2C1 (racemic) [Example 42, N-(3-oxo-1-phenyl-3-(2-(pyridin-4-ylmethyl)-6,7-dihydrothiazolo[5,4-c]pyridin-5(4H)-yl)propyl)naphthalene-2-sulfonamide]
100%	107%	COc1cc(C)c(S(=O)(=O)N2CCCC[C@H]2COCC(=O)N2CCc3sc(CN4CCCC4)cc3C2)c(C)c1 [Example 62, 2-[[(2S)-1-[(4-methoxy-2,6-dimethyl-phenyl)sulfonyl]-piperidin-2-yl]-methoxy]-1-[2-(pyrrolidin-1-yl-methyl)-4,5,6,7-tetrahydro-thieno[3,2-c]pyridin-5-yl]-ethanone]
69%	104%	COc1cc(C)c(S(=O)(=O)N2CCCCC2COCC(=O)N2CCc3sccc3C2c2ccc(C)cc2)c(C)c1 (centres unmarked) [Example 07, 2-((1-(4-methoxy-2,6-dimethylphenylsulfonyl)piperidin-2-yl)methoxy)-1-(4-p-tolyl-6,7-dihydrothieno[3,2-c]pyridin-5(4H)-yl)ethanone]
91%	105%	CCC1c2ccsc2CCN1C(=O)CCCC1CCCCN1S(=O)(=O)c1c(C)cc(OC)cc1C (centres unmarked) [Example 23, 1-(4-Ethyl-6,7-dihydrothieno[3,2-c]pyridin-5(4H)-yl)-4-(1-(4-methoxy-2,6-dimethylphenylsulfonyl)piperidin-2-yl)butan-1-one]
35%	83%	O=C(CC1CCCCN1S(=O)(=O)c1cccc(C(F)(F)F)c1)N1CCc2sccc2C1c1ccc(F)cc1 (centres unmarked) [Example 19, 1-(4-(4-fluorophenyl)-6,7-dihydrothieno[3,2-c]pyridin-5(4H)-yl)-2-(1-(3-(trifluoromethyl)phenylsulfonyl)piperidin-2-yl)ethanone]
48%	106%	COc1cc(C)c(S(=O)(=O)N2CCCCC2COCC(=O)N2CCc3sccc3C2c2cccc(C)c2)c(C)c1 (centres unmarked) [Example 08, 2-((1-(4-methoxy-2,6-dimethylphenylsulfonyl)piperidin-2-yl)methoxy)-1-(4-m-tolyl-6,7-dihydrothieno[3,2-c]pyridin-5(4H)-yl)ethanone]
